These molecules were tested on A431 cells (assay: Assay for total NADH and NAD+ measurements in cells). Conditions: percent of NAD level of untreated control cells (100 = no change).
Assay type: cell-based
Parameters: C: change in NAD levels in response to test compound, shown as % of NAD activity in the absence of test compound: concentration or dose not given beside the values
Description: 2,000 cells/well and, at the same time, test compounds dissolved in media at the desired concentration were added to each well. The treated cells were incubated overnight in C02 incubator. The cells were washed 6 times with PBS with 1 mM CaCl2) and 1 mM MgCl2. In the last wash, 10 μL of PBS with 1 mM CaCl2) and 1 mM MgCl2 per well were left in each well. Immediately thereafter, 10 μL 0.4% dodecyltrimethylammonium bromide (DTAB) in phosphate buffer pH 8.0 as added, and the plates were shaked at 1000 rpm for 5 minutes. 60 μL reaction mix was added, and fluorescence at Ex/Em 530/585 was immediately monitored. A linear increase should be achieved with 8 cycles every 92 seconds, 10 number of flashes/well/cycle. The reaction mix was prepared per the following table, respecting the amount and order in which each component was added:
All assays were performed in A431 cells. Referring to the tables below, activity: “+” ≥25 μM, “++” ≥1 μM and <25 μM, and “+++”<1 μM.
In each table header, A: NAMPT enzyme inhibitory activity, IC50 (μM); B: Cellular NAD inhibitory activity, IC50 (μM); and C: change in NAD levels in response to test compound, shown as % of NAD activity in the absence of test compound. […] A percentage of 100 percent would indicate no increase or decrease in NAD levels as compared to that measured for untreated control cells, while a percentage of 50 percent would indicate a decrease in NAD levels of 50 percent as compared to that measured for untreated control cells.
In the case of CN1CCN(C(=O)c2ccc3nc(-c4ccc(F)cc4)c(-c4ccc(OC(F)(F)F)cc4)nc3c2)CC1 [BC19399], the “C: change in NAD levels in response to test compound, shown as % of NAD activity in the absence of test compound” value is reported as 92%.
In the case of CN1CCN(C(=O)c2cccc3nc(-c4ccc(F)cc4)c(-c4ccc(F)cc4)nc23)CC1 [BC19400], the “C: change in NAD levels in response to test compound, shown as % of NAD activity in the absence of test compound” value is reported as 76%.
For Cn1cc(-c2cnc3nc(-c4ccc(F)cc4)c(-c4ccc(F)cc4)nc3c2)nn1 [BC19401], the “C: change in NAD levels in response to test compound, shown as % of NAD activity in the absence of test compound” value was 55%.
For CCCn1cc(-c2cnc3nc(-c4ccc(F)cc4)c(-c4ccc(F)cc4)nc3c2)nn1 [BC19402], the “C: change in NAD levels in response to test compound, shown as % of NAD activity in the absence of test compound” value was 64%.
In the case of Fc1ccc(-c2nc3cccnc3nc2-c2ccc(F)cc2)cc1 [BC19403], the “C: change in NAD levels in response to test compound, shown as % of NAD activity in the absence of test compound” value is reported as 68%.
For OCCn1ncc(-c2ccc3nc(-c4ccc(F)cc4)c(-c4ccc(F)cc4)nc3c2)n1 [BC19404], the “C: change in NAD levels in response to test compound, shown as % of NAD activity in the absence of test compound” value was 65%.
For CN1CCN(C(=O)c2ccc3nc(-c4ccc(F)cc4F)c(-c4ccccc4)nc3c2)CC1 [BC19405], the “C: change in NAD levels in response to test compound, shown as % of NAD activity in the absence of test compound” value was 69%.
In the case of C#CCNC(=O)c1ccc2nc(-c3ccc(F)cc3F)c(-c3ccccc3)nc2c1 [BC19406], the “C: change in NAD levels in response to test compound, shown as % of NAD activity in the absence of test compound” value is reported as 93%.
With CN1CCN(C(=O)c2cnc3nc(-c4ccc(F)cc4)c(-c4ccc(F)cc4)nc3c2)CC1 [BC19408] the “C: change in NAD levels in response to test compound, shown as % of NAD activity in the absence of test compound” value was 95%.
In the case of CN1CCN(C(=O)c2ccc3nc(-c4ccc(OC(F)(F)F)cc4)c(-c4ccc(OC(F)(F)F)cc4)nc3c2)CC1 [BC19445], the “C: change in NAD levels in response to test compound, shown as % of NAD activity in the absence of test compound” value is reported as 14%.
With CNC(=O)c1ccc2nc(-c3ccc(OC(F)(F)F)cc3)c(-c3ccc(OC(F)(F)F)cc3)nc2c1 [BC19447] the “C: change in NAD levels in response to test compound, shown as % of NAD activity in the absence of test compound” value was 50%.
Oc1ccc2nc(-c3ccc(F)cc3)c(-c3ccc(F)cc3)nc2n1 [BC19448] was tested, and the “C: change in NAD levels in response to test compound, shown as % of NAD activity in the absence of test compound” value was 78%.
For CN1CCN(C(=O)c2ccc3nc(-c4ccc(Cl)cc4)c(-c4ccc(Cl)cc4)nc3c2)CC1 [BC19450], the “C: change in NAD levels in response to test compound, shown as % of NAD activity in the absence of test compound” value was 78%.
C#CCNC(=O)c1ccc2nc(-c3ccc(Cl)cc3)c(-c3ccc(Cl)cc3)nc2c1 [BC19451] was tested, and the “C: change in NAD levels in response to test compound, shown as % of NAD activity in the absence of test compound” value was 57%.
With O=C(NCCO)c1ccc2nc(-c3ccc(OC(F)(F)F)cc3)c(-c3ccc(OC(F)(F)F)cc3)nc2c1 [BC19453] the “C: change in NAD levels in response to test compound, shown as % of NAD activity in the absence of test compound” value was 88%.
COCC(=O)N1CCC(C(=O)Nc2ccc3nc(-c4ccc(F)cc4)c(-c4ccc(F)cc4)nc3c2)CC1 [BC19494] was tested, and the “C: change in NAD levels in response to test compound, shown as % of NAD activity in the absence of test compound” value was 52%.
In the case of Cn1cnnc1-c1cnc2nc(-c3ccc(F)cc3)c(-c3ccc(F)cc3)nc2c1 [BC19496], the “C: change in NAD levels in response to test compound, shown as % of NAD activity in the absence of test compound” value is reported as 95%.
O=C(NCCN1CCOCC1)c1ccc2nc(-c3ccc(Cl)cc3)c(-c3ccc(Cl)cc3)nc2c1 [BC19497] was tested, and the “C: change in NAD levels in response to test compound, shown as % of NAD activity in the absence of test compound” value was 49%.
CN1CCN(C(=O)c2ccc3nc(-c4cccc(N(C)C)c4)c(-c4cccc(N(C)C)c4)nc3c2)CC1 [BC19498] was tested, and the “C: change in NAD levels in response to test compound, shown as % of NAD activity in the absence of test compound” value was 66%.
For O=C(NCCN1CCOCC1)c1ccc2nc(-c3ccc(OC(F)(F)F)cc3)c(-c3ccc(OC(F)(F)F)cc3)nc2c1 [BC19503], the “C: change in NAD levels in response to test compound, shown as % of NAD activity in the absence of test compound” value was 43%.
O=S(=O)(NCCN1CCOCC1)c1ccc2nc(-c3ccc(F)cc3)c(-c3ccc(F)cc3)nc2c1 [BC19504] was tested, and the “C: change in NAD levels in response to test compound, shown as % of NAD activity in the absence of test compound” value was 58%.
With O=S(=O)(NC1CC1)c1ccc2nc(-c3ccc(F)cc3)c(-c3ccc(F)cc3)nc2c1 [BC19505] the “C: change in NAD levels in response to test compound, shown as % of NAD activity in the absence of test compound” value was 30%.
With O=S(=O)(NCC1CC1)c1ccc2nc(-c3ccc(F)cc3)c(-c3ccc(F)cc3)nc2c1 [BC19506] the “C: change in NAD levels in response to test compound, shown as % of NAD activity in the absence of test compound” value was 66%.
COCCNS(=O)(=O)c1ccc2nc(-c3ccc(F)cc3)c(-c3ccc(F)cc3)nc2c1 [BC19507] was tested, and the “C: change in NAD levels in response to test compound, shown as % of NAD activity in the absence of test compound” value was 53%.
With O=S(=O)(NCCCN1CCOCC1)c1ccc2nc(-c3ccc(F)cc3)c(-c3ccc(F)cc3)nc2c1 [BC19508] the “C: change in NAD levels in response to test compound, shown as % of NAD activity in the absence of test compound” value was 28%.
O=S(=O)(NCCCO)c1ccc2nc(-c3ccc(F)cc3)c(-c3ccc(F)cc3)nc2c1 [BC19509] was tested, and the “C: change in NAD levels in response to test compound, shown as % of NAD activity in the absence of test compound” value was 66%.
In the case of CN1CCN(c2ccc3nc(-c4ccc(F)cc4)c(-c4ccc(F)cc4)nc3c2)CC1 [BC19510], the “C: change in NAD levels in response to test compound, shown as % of NAD activity in the absence of test compound” value is reported as 41%.
With CC(=O)N1CCN(c2ccc3nc(-c4ccc(F)cc4)c(-c4ccc(F)cc4)nc3c2)CC1 [BC19511] the “C: change in NAD levels in response to test compound, shown as % of NAD activity in the absence of test compound” value was 26%.
In the case of N#Cc1ccc2nc(-c3ccc(F)cc3)c(-c3ccc(F)cc3)nc2n1 [BC19512], the “C: change in NAD levels in response to test compound, shown as % of NAD activity in the absence of test compound” value is reported as 85%.
With O=C(c1ccc2nc(-c3ccc(F)cc3)c(-c3ccc(F)cc3)nc2c1)N1CCN(CCO)CC1 [BC19513] the “C: change in NAD levels in response to test compound, shown as % of NAD activity in the absence of test compound” value was 49%.
In the case of O=C(c1ccc2nc(-c3ccc(F)cc3)c(-c3ccc(F)cc3)nc2c1)N1CCN(CCOCCO)CC1 [BC19514], the “C: change in NAD levels in response to test compound, shown as % of NAD activity in the absence of test compound” value is reported as 73%.
With COCCCNS(=O)(=O)c1ccc2nc(-c3ccc(F)cc3)c(-c3ccc(F)cc3)nc2c1 [BC19554] the “C: change in NAD levels in response to test compound, shown as % of NAD activity in the absence of test compound” value was 52%.
For CN(C)CCNS(=O)(=O)c1ccc2nc(-c3ccc(F)cc3)c(-c3ccc(F)cc3)nc2c1 [BC19555], the “C: change in NAD levels in response to test compound, shown as % of NAD activity in the absence of test compound” value was 1%.
With CCNS(=O)(=O)c1ccc2nc(-c3ccc(F)cc3)c(-c3ccc(F)cc3)nc2c1 [BC19556] the “C: change in NAD levels in response to test compound, shown as % of NAD activity in the absence of test compound” value was 44%.
In the case of O=S(=O)(NCc1cccnc1)c1ccc2nc(-c3ccc(F)cc3)c(-c3ccc(F)cc3)nc2c1 [BC19557], the “C: change in NAD levels in response to test compound, shown as % of NAD activity in the absence of test compound” value is reported as 63%.
For O=S(=O)(NCc1ccccn1)c1ccc2nc(-c3ccc(F)cc3)c(-c3ccc(F)cc3)nc2c1 [BC19559], the “C: change in NAD levels in response to test compound, shown as % of NAD activity in the absence of test compound” value was 42%.
In the case of O=C1CCCN1CCCNS(=O)(=O)c1ccc2nc(-c3ccc(F)cc3)c(-c3ccc(F)cc3)nc2c1 [BC19560], the “C: change in NAD levels in response to test compound, shown as % of NAD activity in the absence of test compound” value is reported as 51%.
CN1CCN(CCCNS(=O)(=O)c2ccc3nc(-c4ccc(F)cc4)c(-c4ccc(F)cc4)nc3c2)CC1 [BC19561] was tested, and the “C: change in NAD levels in response to test compound, shown as % of NAD activity in the absence of test compound” value was 24%.
For CN(C)CCCNS(=O)(=O)c1ccc2nc(-c3ccc(F)cc3)c(-c3ccc(F)cc3)nc2c1 [BC19562], the “C: change in NAD levels in response to test compound, shown as % of NAD activity in the absence of test compound” value was 1%.
For CCNC(=O)Nc1ccc2nc(-c3ccc(F)cc3)c(-c3ccc(F)cc3)nc2c1 [BC19563], the “C: change in NAD levels in response to test compound, shown as % of NAD activity in the absence of test compound” value was 90%.
With CN(C)CCNC(=O)Nc1ccc2nc(-c3ccc(F)cc3)c(-c3ccc(F)cc3)nc2c1 [BC19564] the “C: change in NAD levels in response to test compound, shown as % of NAD activity in the absence of test compound” value was 5%.
COCCNC(=O)Nc1ccc2nc(-c3ccc(F)cc3)c(-c3ccc(F)cc3)nc2c1 [BC19565] was tested, and the “C: change in NAD levels in response to test compound, shown as % of NAD activity in the absence of test compound” value was 65%.

Reference: patent US20230321086A1, “METHODS AND MATERIALS FOR INHIBITING NICOTINAMIDE PHOSPHORIBOSYLTRANSFERASE ACTIVITY” (Universiy of Pittsburgh - Of the Commonwealth System of …, priority 2020, published 2023)
